The source made the active and inactive calls. How the calls were made is not given here.
Test system: CCRIS mutagenicity, Ames/micronucleus/aberration tests
Experiment: CCRIS mutagenicity studies
[1] = Test System: AMES SALMONELLA TYPHIMURIUM, Strain/Indicator: TA98, Metabolic Activation: NONE, Method: STANDARD PLATE
[2] = Test System: AMES SALMONELLA TYPHIMURIUM, Strain/Indicator: TA100, Metabolic Activation: NONE, Method: PREINCUBATION
[3] = Test System: AMES SALMONELLA TYPHIMURIUM, Strain/Indicator: TA100, Metabolic Activation: NONE, Method: STANDARD PLATE
[4] = Test System: AMES SALMONELLA TYPHIMURIUM, Strain/Indicator: TA1535, Metabolic Activation: NONE, Method: STANDARD PLATE
[5] = Test System: AMES SALMONELLA TYPHIMURIUM, Strain/Indicator: TA1537, Metabolic Activation: NONE, Method: STANDARD PLATE

Cc1ccc(N)cc1O
mutagenic call (Test System: AMES SALMONELLA TYPHIMURIUM, Strain/Indicator: TA97, Metabolic Activation: HAMSTER, LIVER, S-9, AROCLOR 1254 (10%), Method: PREINCUBATION): active; positive
mutagenic call (Test System: AMES SALMONELLA TYPHIMURIUM, Strain/Indicator: TA97, Metabolic Activation: NONE, Method: PREINCUBATION): inactive; negative
mutagenic call (Test System: AMES SALMONELLA TYPHIMURIUM, Strain/Indicator: TA97, Metabolic Activation: RAT, LIVER, S-9, AROCLOR 1254 (10%), Method: PREINCUBATION): active; positive
mutagenic call (Test System: AMES SALMONELLA TYPHIMURIUM, Strain/Indicator: TA98, Metabolic Activation: HAMSTER LIVER S-9, AROCLOR 1254, Method: STANDARD PLATE): inactive; negative
mutagenic call (Test System: AMES SALMONELLA TYPHIMURIUM, Strain/Indicator: TA98, Metabolic Activation: HAMSTER, LIVER, S-9, AROCLOR 1254 (10%), Method: PREINCUBATION): active; positive
mutagenic call (Test System: AMES SALMONELLA TYPHIMURIUM, Strain/Indicator: TA98, Metabolic Activation: NONE, Method: PREINCUBATION): inactive; negative
mutagenic call [1]: inactive; negative
mutagenic call (Test System: AMES SALMONELLA TYPHIMURIUM, Strain/Indicator: TA98, Metabolic Activation: RAT LIVER S-9, AROCLOR 1254, Method: STANDARD PLATE): inactive; negative
mutagenic call (Test System: AMES SALMONELLA TYPHIMURIUM, Strain/Indicator: TA98, Metabolic Activation: RAT, LIVER, S-9, AROCLOR 1254 (10%), Method: PREINCUBATION): active; positive
mutagenic call (Test System: AMES SALMONELLA TYPHIMURIUM, Strain/Indicator: TA100, Metabolic Activation: HAMSTER LIVER S-9, AROCLOR 1254, Method: STANDARD PLATE): inactive; negative
mutagenic call (Test System: AMES SALMONELLA TYPHIMURIUM, Strain/Indicator: TA100, Metabolic Activation: HAMSTER, LIVER, S-9, AROCLOR 1254 (10%), Method: PREINCUBATION): active; positive
mutagenic call [2]: inactive; negative
mutagenic call [3]: inactive; negative
mutagenic call (Test System: AMES SALMONELLA TYPHIMURIUM, Strain/Indicator: TA100, Metabolic Activation: RAT LIVER S-9, AROCLOR 1254, Method: STANDARD PLATE): inactive; negative
mutagenic call (Test System: AMES SALMONELLA TYPHIMURIUM, Strain/Indicator: TA100, Metabolic Activation: RAT, LIVER, S-9, AROCLOR 1254 (10%), Method: PREINCUBATION): active; positive
mutagenic call (Test System: AMES SALMONELLA TYPHIMURIUM, Strain/Indicator: TA102, Metabolic Activation: HAMSTER LIVER S-9, AROCLOR 1254, Method: STANDARD PLATE): inactive; negative
mutagenic call (Test System: AMES SALMONELLA TYPHIMURIUM, Strain/Indicator: TA102, Metabolic Activation: NONE, Method: STANDARD PLATE): inactive; negative
mutagenic call (Test System: AMES SALMONELLA TYPHIMURIUM, Strain/Indicator: TA102, Metabolic Activation: RAT LIVER S-9, AROCLOR 1254, Method: STANDARD PLATE): inactive; negative
mutagenic call (Test System: AMES SALMONELLA TYPHIMURIUM, Strain/Indicator: TA1535, Metabolic Activation: HAMSTER LIVER S-9, AROCLOR 1254, Method: STANDARD PLATE): inactive; negative
mutagenic call (Test System: AMES SALMONELLA TYPHIMURIUM, Strain/Indicator: TA1535, Metabolic Activation: HAMSTER, LIVER, S-9, AROCLOR 1254 (10%), Method: PREINCUBATION): inactive; negative
mutagenic call (Test System: AMES SALMONELLA TYPHIMURIUM, Strain/Indicator: TA1535, Metabolic Activation: NONE, Method: PREINCUBATION): inactive; negative
mutagenic call [4]: inactive; negative
mutagenic call (Test System: AMES SALMONELLA TYPHIMURIUM, Strain/Indicator: TA1535, Metabolic Activation: RAT LIVER S-9, AROCLOR 1254, Method: STANDARD PLATE): inactive; negative
mutagenic call (Test System: AMES SALMONELLA TYPHIMURIUM, Strain/Indicator: TA1535, Metabolic Activation: RAT, LIVER, S-9, AROCLOR 1254 (10%), Method: PREINCUBATION): inactive; negative
mutagenic call (Test System: AMES SALMONELLA TYPHIMURIUM, Strain/Indicator: TA1537, Metabolic Activation: HAMSTER LIVER S-9, AROCLOR 1254, Method: STANDARD PLATE): inactive; negative
mutagenic call [5]: inactive; negative
mutagenic call (Test System: AMES SALMONELLA TYPHIMURIUM, Strain/Indicator: TA1537, Metabolic Activation: RAT LIVER S-9, AROCLOR 1254, Method: STANDARD PLATE): inactive; negative
mutagenic call (Test System: Mouse lymphoma, Strain/Indicator: L5178Y (tk+/tk-), Metabolic Activation: None, Method: Suspension/plate): active; positive
mutagenic call (Test System: Mouse lymphoma, Strain/Indicator: L5178Y (tk+/tk-), Metabolic Activation: Rat, Liver, S-9, Aroclor 1254, Method: Suspension/plate): inactive; negative

c1cnc2c(c1)ccc1c2ccc2cccnc21
mutagenic call (Test System: AMES SALMONELLA TYPHIMURIUM, Strain/Indicator: TA100, Metabolic Activation: POOLED HUMAN LIVER MICROSOMES, Method: PREINCUBATION): active; positive
mutagenic call (Test System: AMES SALMONELLA TYPHIMURIUM, Strain/Indicator: TA100, Metabolic Activation: RAT, LIVER, S-9, PHENOBARBITAL AND 5,6-BENZOFLAVONE, Method: PREINCUBATION): active; positive
mutagenic call (Test System: Ames Salmonella typhimurium, Strain/Indicator: TA100, Metabolic Activation: Rat, Liver, S-9): active; positive
mutagenic call (Test System: LACZ TRANSGENIC MOUSE (MUTATM MOUSE), Strain/Indicator: LACZ MUTANT FREQUENCY, Method: LIVER, SPLEEN, LUNG, KIDNEY, BONE MARROW, COLON HARVESTED 7 D AFTER LAST DOSE, DNA ISOLATED): active; positive; g:c to t:a transversions in all organs

C[C@@H]1O[C@H](C)[C@@H](O)[C@H](O)[C@@H]1OS(=O)(=O)O
mutagenic call [1]: inactive; negative
mutagenic call (Test System: AMES SALMONELLA TYPHIMURIUM, Strain/Indicator: TA98, Metabolic Activation: S-9, Method: STANDARD PLATE): inactive; negative
mutagenic call [3]: inactive; negative
mutagenic call (Test System: AMES SALMONELLA TYPHIMURIUM, Strain/Indicator: TA100, Metabolic Activation: S-9, Method: STANDARD PLATE): inactive; negative
mutagenic call [4]: inactive; negative
mutagenic call (Test System: AMES SALMONELLA TYPHIMURIUM, Strain/Indicator: TA1535, Metabolic Activation: S-9, Method: STANDARD PLATE): inactive; negative
mutagenic call [5]: inactive; negative
mutagenic call (Test System: AMES SALMONELLA TYPHIMURIUM, Strain/Indicator: TA1537, Metabolic Activation: S-9, Method: STANDARD PLATE): inactive; negative
mutagenic call (Test System: E. COLI, Strain/Indicator: WP2 UVRA, Metabolic Activation: NONE, Method: STANDARD PLATE): inactive; negative
mutagenic call (Test System: E. COLI, Strain/Indicator: WP2 UVRA, Metabolic Activation: S-9, Method: STANDARD PLATE): inactive; negative

Cc1ccc2cc3c(ccc4ccccc43)c3c2c1CC3O (configuration not stated)
mutagenic call (Test System: CHINESE HAMSTER V-79, Strain/Indicator: V-79/8-AZAGUANINE, Metabolic Activation: RAT, LIVER, S-9, AROCLOR 1254, Method: STANDARD PLATE): active; positive

Cc1cccc2c1cc(C)c1c3c(ccc12)C(O)C(O)C1OC31 (configuration not stated)
mutagenic call [2]: active; positive
mutagenic call [3]: active; positive

OC/C=C/Cl
mutagenic call [3]: inactive; negative
mutagenic call (Test System: AMES SALMONELLA TYPHIMURIUM, Strain/Indicator: TA100, Metabolic Activation: RAT, LIVER, S-9, PCB, Method: STANDARD PLATE): active; positive

O=C(c1ccccc1)C1OC1c1ccc(-c2ccccc2)cc1 (configuration not stated)
mutagenic call [1]: inactive; negative
mutagenic call (Test System: AMES SALMONELLA TYPHIMURIUM, Strain/Indicator: TA98, Metabolic Activation: RAT, LIVER, S-9, AROCLOR 1254, Method: STANDARD PLATE): inactive; negative
mutagenic call [3]: inactive; negative
mutagenic call (Test System: AMES SALMONELLA TYPHIMURIUM, Strain/Indicator: TA100, Metabolic Activation: RAT, LIVER, S-9, AROCLOR 1254, Method: STANDARD PLATE): inactive; negative

Source: PubChem BioAssay AID1259407 (Chemical Carcinogenesis Research Information System (CCRIS), 2018)
